Reference: article PMC5656517 (European journal of pharmaceutical sciences : official …, 2017)
Values after ≈ are worked out from the molar mass of the structure shown. Read-outs that look alike come from different tables or passages of the source.

Legend:
CYP3A4 [1] = target: T1, CYP3A4 (Homo sapiens, UniProt P08684); assay: KI and kinact determination with recombinant CYP3A4; assay type: in vitro ADME
Target sequence in this assay (P08684 2-503 limits assumed): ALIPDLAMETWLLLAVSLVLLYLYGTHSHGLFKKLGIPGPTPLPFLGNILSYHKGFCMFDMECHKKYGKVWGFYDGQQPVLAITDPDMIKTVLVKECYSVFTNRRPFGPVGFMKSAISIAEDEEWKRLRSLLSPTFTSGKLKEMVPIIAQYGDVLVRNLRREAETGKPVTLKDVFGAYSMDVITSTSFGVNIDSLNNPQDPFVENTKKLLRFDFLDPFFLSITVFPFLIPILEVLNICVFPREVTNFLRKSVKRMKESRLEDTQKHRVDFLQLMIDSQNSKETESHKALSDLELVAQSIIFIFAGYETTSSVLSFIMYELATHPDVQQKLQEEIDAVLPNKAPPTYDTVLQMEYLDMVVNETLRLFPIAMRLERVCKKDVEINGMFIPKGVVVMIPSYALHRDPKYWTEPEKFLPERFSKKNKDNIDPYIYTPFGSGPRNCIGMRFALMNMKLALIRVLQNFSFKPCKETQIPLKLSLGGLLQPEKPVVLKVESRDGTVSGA

CYP3A4 [2] = target: T1, CYP3A4; assay type: in vitro ADME; conditions: human liver microsomes, 100 µM
Target sequence in this assay (P08684 whole entry): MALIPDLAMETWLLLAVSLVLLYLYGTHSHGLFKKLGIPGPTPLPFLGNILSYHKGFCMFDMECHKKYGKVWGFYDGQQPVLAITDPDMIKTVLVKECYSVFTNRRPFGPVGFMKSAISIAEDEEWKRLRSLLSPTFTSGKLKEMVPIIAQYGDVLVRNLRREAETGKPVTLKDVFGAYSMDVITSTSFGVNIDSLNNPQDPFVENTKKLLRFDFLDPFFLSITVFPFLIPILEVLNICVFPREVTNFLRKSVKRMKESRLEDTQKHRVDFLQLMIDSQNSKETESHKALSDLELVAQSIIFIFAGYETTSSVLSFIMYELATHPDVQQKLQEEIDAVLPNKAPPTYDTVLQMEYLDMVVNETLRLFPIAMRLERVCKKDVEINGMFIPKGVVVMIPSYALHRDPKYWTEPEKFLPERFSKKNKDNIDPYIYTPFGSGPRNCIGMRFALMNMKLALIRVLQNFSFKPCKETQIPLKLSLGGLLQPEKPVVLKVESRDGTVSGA

CYP2C19 [3] = target: T2, CYP2C19 (Homo sapiens, UniProt P33261); conditions: human liver microsomes, substrate (S)-mephenytoin, mean ± standard deviation
T2 sequence (P33261 whole entry): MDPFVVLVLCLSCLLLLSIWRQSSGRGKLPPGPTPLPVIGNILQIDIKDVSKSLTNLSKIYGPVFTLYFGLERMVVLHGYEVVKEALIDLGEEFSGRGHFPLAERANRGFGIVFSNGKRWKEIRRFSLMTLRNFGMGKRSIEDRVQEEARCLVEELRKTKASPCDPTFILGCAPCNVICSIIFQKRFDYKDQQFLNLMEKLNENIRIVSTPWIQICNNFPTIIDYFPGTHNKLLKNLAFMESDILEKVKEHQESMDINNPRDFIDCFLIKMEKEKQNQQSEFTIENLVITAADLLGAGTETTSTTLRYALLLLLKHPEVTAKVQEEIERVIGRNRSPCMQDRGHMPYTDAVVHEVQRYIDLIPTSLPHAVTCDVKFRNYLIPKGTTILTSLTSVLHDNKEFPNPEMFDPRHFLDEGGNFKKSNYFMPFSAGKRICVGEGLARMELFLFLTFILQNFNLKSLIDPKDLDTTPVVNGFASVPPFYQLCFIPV

CYP2C19 [4] = target: T2, CYP2C19; assay: Single concentration; conditions: human liver microsomes
CYP3A4 [5] = target: T1, CYP3A4; assay: Single concentration; conditions: human liver microsomes
Target sequence in this assay (P08684 whole entry): as the sequence (P08684 whole entry) above

CYP2A6 = target: T3, CYP2A6 (Homo sapiens, UniProt P11509); assay: Cocktail assay IC50 determination in human liver microsomes; conditions: substrate coumarin
T3 sequence (P11509 1-494): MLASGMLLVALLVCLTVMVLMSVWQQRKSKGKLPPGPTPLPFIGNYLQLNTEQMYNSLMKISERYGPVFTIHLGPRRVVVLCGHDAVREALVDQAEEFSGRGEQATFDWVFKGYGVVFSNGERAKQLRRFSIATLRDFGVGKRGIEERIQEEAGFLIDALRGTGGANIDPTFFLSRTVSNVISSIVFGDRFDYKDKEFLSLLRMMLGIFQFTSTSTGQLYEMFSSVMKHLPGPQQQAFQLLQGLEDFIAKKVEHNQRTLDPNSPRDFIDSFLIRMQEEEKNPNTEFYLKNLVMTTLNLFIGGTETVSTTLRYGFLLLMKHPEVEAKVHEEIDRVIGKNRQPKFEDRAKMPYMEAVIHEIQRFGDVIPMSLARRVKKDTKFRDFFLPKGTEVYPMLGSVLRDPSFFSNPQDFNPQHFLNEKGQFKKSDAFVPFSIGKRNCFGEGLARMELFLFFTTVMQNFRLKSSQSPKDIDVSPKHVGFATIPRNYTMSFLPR

CYP2B6 = target: T4, CYP2B6 (Homo sapiens, UniProt P20813); assay: as above; conditions: substrate bupropion, mean ± standard deviation
T4 sequence (P20813 1-491): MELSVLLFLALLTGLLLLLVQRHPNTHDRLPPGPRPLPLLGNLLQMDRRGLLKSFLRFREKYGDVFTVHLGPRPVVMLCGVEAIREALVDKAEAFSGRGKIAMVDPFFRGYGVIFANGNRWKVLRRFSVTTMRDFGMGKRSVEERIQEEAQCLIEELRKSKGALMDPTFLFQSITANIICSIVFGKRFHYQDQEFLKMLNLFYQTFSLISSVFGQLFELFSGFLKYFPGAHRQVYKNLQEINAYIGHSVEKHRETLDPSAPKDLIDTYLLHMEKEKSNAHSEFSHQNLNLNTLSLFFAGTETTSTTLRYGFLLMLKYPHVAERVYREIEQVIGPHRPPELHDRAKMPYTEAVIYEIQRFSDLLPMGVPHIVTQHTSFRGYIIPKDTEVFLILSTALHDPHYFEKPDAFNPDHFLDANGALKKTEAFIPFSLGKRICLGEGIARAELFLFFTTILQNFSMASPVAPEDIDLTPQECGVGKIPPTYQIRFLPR

CYP2C9 = CYP2C9 (Homo sapiens, UniProt P11712); assay: as above
Sequence of CYP2C9 (P11712 whole entry): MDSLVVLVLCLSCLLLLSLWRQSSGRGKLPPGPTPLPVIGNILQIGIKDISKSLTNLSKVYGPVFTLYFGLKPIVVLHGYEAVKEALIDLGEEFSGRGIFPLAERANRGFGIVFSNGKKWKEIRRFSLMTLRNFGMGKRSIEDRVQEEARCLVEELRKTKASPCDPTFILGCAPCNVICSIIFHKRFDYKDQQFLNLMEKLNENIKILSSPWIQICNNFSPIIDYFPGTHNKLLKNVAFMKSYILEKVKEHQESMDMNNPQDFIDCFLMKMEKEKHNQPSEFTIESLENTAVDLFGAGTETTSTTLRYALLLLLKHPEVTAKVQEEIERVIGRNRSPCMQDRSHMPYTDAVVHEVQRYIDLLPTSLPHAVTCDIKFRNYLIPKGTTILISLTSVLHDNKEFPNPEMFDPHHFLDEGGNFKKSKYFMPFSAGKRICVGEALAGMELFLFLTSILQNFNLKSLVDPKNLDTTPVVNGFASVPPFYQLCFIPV

Compound: C=CC(C)(C)c1cc(/C=C/C(=O)c2ccc(O)cc2)c(OC)cc1O [Licochalcone A, licochalcone A]
- KI (inactivation) (CYP3A4 [1]; read-out: KI for inactivation of CYP3A4 (midazolam), recombinant human CYP3A4): 2220 nM
- Efficiency of inactivation (CYP3A4 [1]; recombinant CYP3A4): 0.021 µM⁻¹ min⁻¹
- kinact for inactivation of CYP3A4 (midazolam) (CYP3A4 [1]; recombinant human CYP3A4): 0.047 min⁻¹
- % Control activity (CYP3A4 [2]; NADPH, 2 mM glutathione): 38.5%
- % Control activity (CYP3A4 [2]; NADPH, 1000 U/mL catalase): 42.4%
- % Control activity (CYP3A4 [2]; NADPH, 1000 U/mL superoxide dismutase): 46.9%
- % Control activity (CYP3A4 [2]; NADPH, mean of two experiments): 49.5%
- % Control activity (CYP3A4 [2]; without NADPH, mean of two experiments): 100%
- IC50, CYP2C19 (CYP2C19 [3]): 3.60 ± 0.79 µg/mL (≈ 10.6 µM)
- inhibition of CYP2C19 at 10 µM, in words (CYP2C19 [4]): moderate inhibitor
- inhibition of CYP3A4 (testosterone) at 10 µM, in words (CYP3A4 [5]): moderate inhibitor
- IC50, CYP2A6 (CYP2A6): >25 µg/mL
- IC50, CYP2B6 (CYP2B6): 17.96 ± 4.58 µg/mL (≈ 53.1 µM)
- IC50, CYP2C9 (CYP2C9; lower end of the range of IC50 values): high nM levels
- IC50, CYP2C9 (CYP2C9; substrate tolbutamide, mean ± standard deviation): 0.78 ± 0.09 µg/mL (≈ 2.3 µM)
